In publication PMC9182007, “Statistical Methods in the Study of Protein Binding and Its Relationship to Drug Bioavailability in Breast Milk” (Molecules, 2022):
Like-named read-outs stand apart in the source and are kept apart here.

Assays:
[1] = molecular target: T1, bovine serum albumin (BSA) (Bos taurus, UniProt P02769); experiment: NP TLC on plates impregnated with bovine serum albumin; assay type: binding; settings: for NP (Rf, BSA-impregnated NP plate): Table S3, NP plate impregnated with 2 mg/mL BSA, pH 7.4 mobile phase
T1 construct: purchased Sigma Aldrich
T1 sequence (P02769 25-607): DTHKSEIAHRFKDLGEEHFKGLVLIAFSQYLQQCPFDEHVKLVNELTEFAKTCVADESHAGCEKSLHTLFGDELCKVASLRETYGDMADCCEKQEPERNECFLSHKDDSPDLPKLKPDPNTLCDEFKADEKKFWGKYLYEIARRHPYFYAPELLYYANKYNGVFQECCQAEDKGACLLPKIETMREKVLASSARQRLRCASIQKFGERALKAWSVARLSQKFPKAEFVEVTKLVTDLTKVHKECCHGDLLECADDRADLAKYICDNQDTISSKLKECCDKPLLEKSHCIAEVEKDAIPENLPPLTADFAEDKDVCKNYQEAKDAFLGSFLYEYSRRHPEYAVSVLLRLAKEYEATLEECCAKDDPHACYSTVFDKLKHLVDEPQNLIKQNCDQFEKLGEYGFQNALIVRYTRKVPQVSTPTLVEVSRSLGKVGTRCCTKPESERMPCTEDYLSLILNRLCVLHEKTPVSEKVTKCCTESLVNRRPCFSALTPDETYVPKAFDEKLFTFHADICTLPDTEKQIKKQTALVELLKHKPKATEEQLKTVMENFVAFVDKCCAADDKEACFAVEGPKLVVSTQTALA
Text: Chromatographic descriptors were obtained in experiments, thin layer chromatography in normal (NP TLC) and reversed mode (RP TLC). The stationary phase was modified with bovine serum albumin (BSA). TLC was the source of retention factor (Rf) values, denoted in statistical models as NP and RP.
(§1) For TLC chromatography, glass plates 20 × 20 cm from Merck, covered with silica gel with the addition of a fluorescent indicator, were used. Normal phase (NP) plates were used with standard Merck TLC Silica gel 60 F254 plates, while in reverse phase (RP) silanized plates RP-2: Merck TLC Silica gel 60 RP-2 F254 were used.
The stationary phase of the plates, both NP and RP, was modified with an aqueous solution of bovine serum albumin purchased from Sigma Aldrich (bovine serum albumin, lyophilized powder).
The impregnation of the plates was carried out with a 2 mg/mL solution applied to the surface using a Desaga SG 1 hand sprayer; the plates were then air dried. […] Normal and reversed phase thin layer chromatography (NP TLC and RP TLC respectively) was performed using silica-gel-coated glass plates. Half of them were covered with 2 mg/mL bovine serum albumin solution and half remained pure.
(§2) The mobility of the compounds was also determined on the plates with no protein as a modifier. […] The acetate buffer (20 mM) was prepared by dissolving 1.54 g of ammonium acetate in 1 L of distilled water. The pH was then adjusted with a concentrated ammonia solution using a pH meter. The plates were developed in standard, vertical chromatographic chambers, each time using 100 mL of the mobile phase, after the chamber was previously saturated with solvent vapors for approximately 1 h.
(§3) The unfolded-protein-impregnated plates and the control plates were scanned with a Desaga CD 60 densitometer. The values of the delay factor (Rf) were collected, i.e., the ratio of the distance traveled by the substance to be analyzed to the distance traveled through the front of the mobile phase. […] The experiment was repeated (for both BSA-coated and control plates) and the Rf values pooled are the mean of both series of experiments.

[2] = molecular target: T2, human serum albumin (HSA) (Homo sapiens, UniProt P02768)
T2 sequence (P02768 25-609): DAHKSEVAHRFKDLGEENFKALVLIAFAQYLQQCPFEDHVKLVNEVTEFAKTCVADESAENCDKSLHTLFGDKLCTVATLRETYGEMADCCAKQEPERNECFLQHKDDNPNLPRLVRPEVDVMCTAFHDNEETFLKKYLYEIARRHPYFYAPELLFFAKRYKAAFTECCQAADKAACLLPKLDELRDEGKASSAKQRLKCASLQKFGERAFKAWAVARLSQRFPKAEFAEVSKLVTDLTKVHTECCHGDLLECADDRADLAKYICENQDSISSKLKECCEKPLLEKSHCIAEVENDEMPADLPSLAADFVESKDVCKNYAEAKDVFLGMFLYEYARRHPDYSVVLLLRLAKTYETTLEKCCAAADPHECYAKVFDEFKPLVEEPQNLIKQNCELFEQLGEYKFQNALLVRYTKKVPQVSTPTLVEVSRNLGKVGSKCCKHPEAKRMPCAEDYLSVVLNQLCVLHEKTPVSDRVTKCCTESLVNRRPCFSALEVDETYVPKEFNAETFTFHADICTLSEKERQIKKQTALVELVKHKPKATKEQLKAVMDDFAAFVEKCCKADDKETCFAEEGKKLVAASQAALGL

[3] = RP TLC on non-impregnated control plates; assay type: physicochemical; settings: Table S4, non-impregnated RP plate; acetonitrile/acetate buffer pH 7.4/methanol 60:20:20
plasma protein = settings: ref DrugBank [7], cited from earlier work
[4] = NP TLC on non-impregnated control plates; assay type: physicochemical; settings: for CNP (Rf, control NP plate): Table S3, non-impregnated NP plate, acetonitrile/acetate buffer pH 7.4/methanol 60:20:20
Experimental: as §1
Normal and reversed phase thin layer chromatography (NP TLC and RP TLC respectively) was performed using silica-gel-coated glass plates. Half of them were covered with 2 mg/mL bovine serum albumin solution and half remained pure.
as §2, §3

[5] = HPLC on immobilized artificial membrane column (HPLCIAM); assay type: physicochemical; settings: for log k IAM: Table S5, IAM column, pH 7.4; for k IAM: Table S5, retention factor, IAM column, phosphate buffer pH 7.4/acetonitrile 80:20; for kIAM / log kIAM: Table S9, external group
Experimental: High performance liquid chromatography was performed using immobilized human serum albumin column (HPLCHSA) and immobilized artificial membrane (HPLCIAM). HPLC was the source of the log k values (logarithm of retention factor), log kHSA and log kIAM.
The second experiment was performed using an immobilized artificial membrane (IAM) column. The assay was also performed on a Perkin Elmer Series 200 instrument connected to a UV-VIS spectrometer as the detector. The analytical wavelength was the same for all compounds, at 210 nm. […] The mobile phase was a mixture of 10 mM phosphate buffer pH 7.4 and acetonitrile in the ratio 80:20 (v/v). The phosphate buffer was obtained by dissolving the finished tablet in the appropriate amount of distilled water (1 tablet per 200 mL). In this case, it was not necessary to adjust the pH of the buffer using a pH meter.
The phase flow through the system was set to 0.5 mL/min as recommended by the column manufacturer. The solutions were delivered to the column using an autosampler syringe, the injection size was 10 µL.
The experiment was then repeated and the collected retention rates were the mean values of both series.

[6] = molecular target: T1, bovine serum albumin (BSA); experiment: RP TLC on plates impregnated with bovine serum albumin; assay type: binding; settings: Table S4, RP plate impregnated with 2 mg/mL BSA; pH 7.4 mobile phase
[7] = Table S1, coded 1/0; ref DrugBank [7]; cited from earlier work
[8] = molecular target: T2, human serum albumin (HSA); experiment: in vitro; settings: immobilized hsa column, pH 7.4
[9] = Table S5, retention factor, HSA column, pH 7.4, 25 degrees Celsius
[10] = Table S1, plasma protein binding given as fraction
[11] = human, immobilized hsa column, pH 7.4
[12] = Table S6, external group (n = 38), given as fraction

Compound | NP (Rf, BSA-impregnated NP plate) [1] | log k HSA ([2]; Table S5, HSA, pH 7.4) | k HSA [2, 9] | CRP (Rf, control RP plate) [3] | PB (plasma protein; [10]) | CNP (Rf, control NP plate) [4] | log k IAM [5] | k IAM [5] | RP (Rf, BSA-impregnated RP plate) [6] | CNS+/- [7] | k HSA ([2]; pH 7.4) | chromatographic logD [8] | log k HSA [2, 11] | kHSA [2] | PB (plasma protein; [12]) | kIAM [5] | log kIAM [5] | NP (Rf value from the NP plate impregnated with 2 mg/mL BSA solution) ([1]; Table S8, external group) | kHSA ([2]; Table S9, external group) | CNP (Rf value from the non-impregnated NP plate, control) ([4]; Table S8, external group)
CC(CN1c2ccccc2Sc2ccccc21)N(C)C (centres unmarked) [promethazine] | 0.42 | 0.73 | 5.35 | 0.49 | 0.93 | 0.43 | 1.17 | 14.96 | 0.47 | 1 |  |  |  |  |  |  |  |  |  | 
COc1ccc(C(CN(C)C)C2(O)CCCCC2)cc1 (centres unmarked) [venlafaxine] |  |  |  |  | 0.27 |  | 0.92 | 8.25 |  |  | 1.05 | 0.02 |  |  |  |  |  |  |  | 
OCCOCCN1CCN(C2=Nc3ccccc3Sc3ccccc32)CC1 [quetiapine] | 0.68 |  | 2.48 | 0.73 | 0.83 | 0.68 | 1.23 | 17.02 | 0.69 | 1 |  |  | 0.39 |  |  |  |  |  |  | 
CCOCCn1c(C2CCN(CCc3ccc(C(C)(C)C(=O)O)cc3)CC2)nc2ccccc21 [bilastine] | 0.44 |  | 0.67 | 0.76 | 0.87 | 0.46 | -0.26 | 0.55 | 0.72 |  |  | -0.17 |  |  |  |  |  |  |  | 
CCOc1ccc(/C=C2\NCCc3cc(OCC)c(OCC)cc32)cc1OCC [drotaverine] | 0.59 |  | 1.91 | 0.55 |  | 0.61 | 1.49 | 31.24 | 0.58 | 1 |  |  | 0.28 |  |  |  |  |  |  | 
Cc1cncc(CN2CCC(=C3c4ccc(Cl)cc4CCc4cccnc43)CC2)c1 [rupatadine] | 0.43 |  | 12.38 | 0.55 | 0.985 | 0.42 | 0.97 | 9.29 | 0.52 |  |  | 1.09 |  |  |  |  |  |  |  | 
CC(=O)S[C@@H]1CC2=CC(=O)CC[C@]2(C)[C@H]2CC[C@@]3(C)[C@@H](CC[C@@]34CCC(=O)O4)[C@H]12 [spironolactone] | 0.96 |  | 0.82 | 0.78 | 0.9 | 0.98 | 1.13 | 13.38 | 0.77 |  |  | -0.09 |  |  |  |  |  |  |  | 
CN1CCN=C(c2ccccc2)c2cc(Cl)ccc21 [medazepam] | 0.94 |  |  | 0.66 |  | 0.91 | 1.54 | 34.65 | 0.65 |  | 17.86 | 1.25 |  |  |  |  |  |  |  | 
CNCC[C@H](Oc1cccc2ccccc12)c1cccs1 [duloxetine] |  |  |  |  |  |  |  |  |  |  |  | 0.91 |  | 8.16 | 0.90 | 2.84 | 0.45 |  |  | 
NC(N)=Nc1nc(CSCCC(N)=NS(N)(=O)=O)cs1 [famotidine] | 0.71 |  | 0.99 | 0.98 |  | 0.70 |  |  | 0.99 |  |  | 0 |  |  |  |  |  |  |  | 
COc1ccccc1OCCNCC(O)COc1cccc2[nH]c3ccccc3c12 (centres unmarked) [carvedilol] | 0.9 |  | 14.5 |  | 0.98 | 0.73 |  |  |  | 0 |  | 1.16 |  |  |  |  |  |  |  | 
COc1ccnc(C[S+]([O-])c2nc3ccc(OC(F)F)cc3[nH]2)c1OC (centres unmarked) [pantoprazole] | 0.92 |  | 2.09 | 0.85 | 0.98 | 0.93 | 0.34 | 2.19 | 0.83 | 0 |  |  | 0.32 |  |  |  |  |  |  | 
CC(C)NCC(O)COc1ccc(COCCOC(C)C)cc1 (centres unmarked) [bisoprolol] | 0.66 |  | 1.07 | 0.57 | 0.3 | 0.67 | 0.83 | 6.74 | 0.56 | 0 |  |  |  |  |  |  |  |  |  | 
Cc1ccc(O)c([C@H](CCN(C(C)C)C(C)C)c2ccccc2)c1 [tolterodine] |  |  |  |  |  |  | -0.68 | 0.21 |  |  | 2.9 | 0.46 |  |  |  |  |  |  |  | 
CCN(Cc1ccncc1)C(=O)C(CO)c1ccccc1 (centres unmarked) [tropicamid] | 0.86 | -0.82 | 0.15 | 0.83 | 0.45 | 0.85 | 0.03 | 1.06 | 0.83 | 1 |  |  |  |  |  |  |  |  |  | 
CC(C)NCC(O)COc1cccc2[nH]ccc12 (centres unmarked) [pindolol] | 0.52 |  | 1.65 |  | 0.4 | 0.53 | 0.78 | 6.09 |  |  |  | 0.22 |  |  |  |  |  |  |  | 
CCC[C@H](N[C@@H](C)C(=O)N1[C@H](C(=O)O)C[C@@H]2CCCC[C@@H]21)C(=O)OCC [perindopril] | 0.46 |  | 0.49 | 0.57 | 0.15 | 0.47 | -0.76 | 0.18 | 0.58 | 0 |  |  | -0.31 |  |  |  |  |  |  | 
Cc1cc2c(s1)Nc1ccccc1N=C2N1CCN(C)CC1 [olanzapine] |  |  |  |  |  |  | 1.31 | 20.31 |  |  | 4.83 | 0.68 |  |  |  |  |  |  |  | 
CC(=O)OCC(=O)[C@@]1(O)CC[C@H]2[C@@H]3CCC4=CC(=O)CC[C@]4(C)[C@H]3[C@@H](O)C[C@@]21C [hydrocortisone acetate] | 0.96 |  | 0.66 |  | 0.95 | 0.96 | 0.45 | 2.82 |  |  |  | -0.18 |  |  |  |  |  |  |  | 
Cc1nc2n(c(=O)c1CCN1CCC(c3noc4cc(F)ccc34)CC1)CCCC2 [risperidone] |  |  |  |  |  |  | 0.68 | 4.83 |  |  | 2.11 | 0.32 |  |  |  |  |  |  |  | 
CN(C)C(=O)C(CCN1CCC(O)(c2ccc(Cl)cc2)CC1)(c1ccccc1)c1ccccc1 [loperamide] | 0.67 |  |  | 0.75 |  | 0.68 |  |  | 0.77 |  | 4.47 | 0.65 |  |  |  |  |  |  |  | 
CN1CCN(C2=Nc3cc(Cl)ccc3Nc3ccccc32)CC1 [clozapine] | 0.46 |  | 6.84 |  |  | 0.45 | 1.71 | 50.94 |  |  |  | 0.84 |  |  |  |  |  |  |  | 
CCN(CC)C(=O)Nc1ccc(OCC(O)CNC(C)(C)C)c(C(C)=O)c1 (centres unmarked) [celiprolol] | 0.46 |  | 1.12 | 0.75 | 0.275 | 0.45 | 0.77 | 5.87 | 0.79 |  |  | 0.05 |  |  |  |  |  |  |  | 
NCC1(CC(=O)O)CCCCC1 [gabapentin] |  |  |  |  |  |  |  |  |  |  |  | -0.84 |  | 0.15 | 0.03 | 1.70 | 0.23 |  |  | 
CCCc1nc2c(C)cc(-c3nc4ccccc4n3C)cc2n1Cc1ccc(-c2ccccc2C(=O)O)cc1 [telmisartan] | 0.90 |  |  | 0.87 | 0.995 | 0.90 | 0.67 | 4.68 | 0.85 | 1 |  |  |  |  |  |  |  |  |  | 
CCS(=O)(=O)CCn1c([N+](=O)[O-])cnc1C [tinidazole] |  |  |  |  |  |  |  |  |  |  |  | -0.92 |  |  | 0.12 | 2.00 | 0.30 | 0.88 | 0.12 | 0.89
CC(C)C[C@H](CN)CC(=O)O [pregabalin] |  |  |  |  |  |  |  |  |  |  |  | -0.87 |  | 0.14 | 0.00 | 1.65 | 0.22 |  |  | 
